According to patent publication US8916499B2, “Herbicidal compositions comprising 4-amino-3-chloro-5-fluoro-6-(4-chloro-2-fluoro-3-methoxyphenyl) pyridine-2-carboxylic acid or a derivative thereof and a protoporphyrinogen oxidase inhibitor” (Dow AgroSciences LLC, priority 2012, dated 2014):

Columns and labels:
SETVI = experiment: Pre-emergence soil-applied weed control, greenhouse (Example IV); format: in vivo, Setaria viridis (L.) Beauv.; settings: 105 g ai/ha alone
Description: (§1) Seeds or nutlets of the desired test plant species were planted in a soil matrix prepared by mixing a loam soil (32 percent silt, 23 percent clay, and 45 percent sand, with a pH of about 6.5 and an organic matter content of about 1.9 percent) and calcareous grit in an 80 to 20 ratio. The soil matrix was contained in plastic pots with a volume of 1 quart and a surface area of 83.6 square centimeters (cm^2).
(§2) Treatments consisted of the benzyl ester of 4-amino-3-chloro-5-fluoro-6-(4-chloro-2-fluoro-3-methoxy-phenyl)pyridine-2-carboxylic acid (compound A) formulated as an SC (suspension concentrate) and various herbicidal components alone and in combination. Forms of compound A were applied on an acid equivalent basis.
(§3) Other herbicidal components were applied on an acid equivalent or active ingredient basis and included the protoporphyrinogen oxidase (PPO)-inhibiting herbicides, flumioxazin formulated as Payload® and oxadiazon formulated as Ronstar® 50W.
(§4) Treatment requirements were calculated based upon the rates being tested, the concentration of active ingredient or acid equivalent in the formulation, and a 12 mL application volume at a rate of 187 L/ha.
For treatments comprised of formulated compounds, measured amounts of compounds were placed individually in 25 mL glass vials and diluted in a volume of 1.25% (v/v) Agri-Dex® crop oil concentrate (COC) to obtain 12× stock solutions. […] Application solutions were prepared by adding an appropriate amount of each stock solution (e.g., 1 mL) and diluted to the appropriate final concentrations with the addition of 10 mL of an aqueous mixture of 1.25% (v/v) COC so that the final spray solutions contained 1.25% (v/v) COC. […]
(§5) The treated and control pots were placed in a greenhouse and top watered as needed. […] After approximately 4 weeks, the condition of the test plants as compared with that of the untreated plants was determined visually and scored on a scale of 0 to 100 percent where 0 corresponds to no injury or growth inhibition and 100 corresponds to complete kill. […]

XANST = experiment: as above; format: in vivo, Xanthium strumarium L.
Description: as §1, §2, §3, §4
(§6) For treatments comprised of formulated compounds, measured amounts of compounds were placed individually in 25 mL glass vials and diluted in a volume of 1.25% (v/v) Agri-Dex® crop oil concentrate (COC) to obtain 12× stock solutions. […] Application solutions were prepared by adding an appropriate amount of each stock solution (e.g., 1 mL) and diluted to the appropriate final concentrations with the addition of 10 mL of an aqueous mixture of 1.25% (v/v) COC so that the final spray solutions contained 1.25% (v/v) COC.
(§7) All stock solutions and applications solutions were visually inspected for compound compatibility prior to application. Spray solutions were applied to the soil with an overhead Mandel track sprayer equipped with a 8002E nozzles calibrated to deliver 187 L/ha over an application area of 0.503 m^2 at a spray height of 18 inches (46 cm) above average pot height. Control pots were sprayed in the same manner with the solvent blank.
as §5, with “needed. When required to ensure good germination and healthy plants, a fungicide treatment and/or other chemical or physical treatment was applied. The pots were maintained in a greenhouse with an approximate 14 hr photoperiod which was maintained at about 29° C. during the day and 26° C. during the night.” for “needed.”

IPOHE = experiment: as above; format: in vivo, Ipomoea hederacea (L.) Jacq.
Description: as §1, §2, §3, §4, §6, §7
The treated and control pots were placed in a greenhouse and top watered as needed. When required to ensure good germination and healthy plants, a fungicide treatment and/or other chemical or physical treatment was applied. The pots were maintained in a greenhouse with an approximate 14 hr photoperiod which was maintained at about 29° C. during the day and 26° C. during the night. Nutrients (Peters® Excel 15-5-15 5-Ca 2-Mg) were applied in the irrigation solution as needed and water was added on a regular basis. Supplemental lighting was provided with overhead metal halide 1000-Watt lamps as necessary. After approximately 4 weeks, the condition of the test plants as compared with that of the untreated plants was determined visually and scored on a scale of 0 to 100 percent where 0 corresponds to no injury or growth inhibition and 100 corresponds to complete kill.
Colby's equation was used to determine the herbicidal effects expected from the mixtures (Colby, S. R. 1967. Calculation of the synergistic and antagonistic response of herbicide combinations. Weeds 15:20-22.).
The following equation was used to calculate the expected activity of mixtures containing two active ingredients, A and B: Expected=A+B−(A×B/100)

ECHOR = experiment: In-water applied weed control, transplanted paddy rice, greenhouse (Example II); format: in vivo, Echinochloa oryzoides (Ard.) Fritsch
ECHCG = experiment: as above; format: in vivo, Echinochloa crus-galli (L.) P. Beauv.
ISCRU = experiment: Postemergence foliar-applied weed control, direct seeded rice, greenhouse (Example I); format: in vivo, Ischaemum rugosum Salisb.; settings: g ae/ha Compound A Benzyl Ester+g ai/ha saflufenacil: r49 8+0, r50 16+0, r51 0+10, r52 0+20, r53 8+10, r54 16+10, r55 8+20, r56 16+20
LEFCH [1] = experiment: In-water applied weed control, transplanted paddy rice, greenhouse (Example II); format: in vivo, Leptochloa chinensis (L.) Nees
ECHCO = experiment: Postemergence foliar-applied weed control, direct seeded rice, greenhouse (Example I); format: in vivo, Echinochloa colona (L.) Link; settings: g ae/ha Compound A Benzyl Ester+g ai/ha saflufenacil: r14 4.38+0, r15 8.75+0, r16 0+10, r17 0+20, r18 4.38+10, r19 8.75+10, r20 4.38+20, r21 8.75+20
LEFCH [2] = experiment: as above; format: in vivo, Leptochloa chinensis (L.) Nees
CYPRO = experiment: In-water applied weed control, transplanted paddy rice, greenhouse (Example II); format: in vivo, Cyperus rotundus L.; settings: 10 g ai/ha alone

| Compound | Visual Weed Control (%) - 28 DAA SETVI Obs (SETVI) | Visual Weed Control (%) - 29 DAA XANST Obs (XANST; 105 g ai/ha alone) | Visual Weed Control (%) - 29 DAA XANST Obs (XANST; 210 g ai/ha alone) | Visual Weed Control (%) - 28 DAA IPOHE Obs (IPOHE; 105 g ai/ha alone) | Visual Weed Control (%) - 28 DAA IPOHE Obs (IPOHE; 210 g ai/ha alone) | Visual Weed Control (%) - 28 DAA IPOHE Obs (IPOHE; 420 g ai/ha alone) | Visual Weed Control (%) - 20 DAA ECHOR Obs (ECHOR; 10 g ai/ha alone) | Visual Weed Control (%) - 20 DAA ECHOR Obs (ECHOR; 20 g ai/ha alone) | Visual Weed Control (%) - 20 DAA ECHCG Obs (ECHCG; 10 g ai/ha alone) | Visual Weed Control (%) - 20 DAA ECHCG Obs (ECHCG; 20 g ai/ha alone) | Visual Weed Control (%) - 21 DAA ISCRU Obs (ISCRU) | Visual Weed Control (%) - 20 DAA LEFCH Obs (LEFCH [1]; 10 g ai/ha alone) | Visual Weed Control (%) - 20 DAA LEFCH Obs (LEFCH [1]; 20 g ai/ha alone) | Visual Weed Control (%) - 21 DAA LEFCH Obs (LEFCH [1]; 40 g ai/ha alone) | Visual Weed Control (%) - 20 DAA ECHCO Obs (ECHCO) | Visual Weed Control (%) - 20 DAA LEFCH Obs (LEFCH [2]; g ae/ha Compound A Acid+g ai/ha saflufenacil: r11 4.38+0, r12 8.75+0, r13 17.5+0, r14 0+5, r15 4.38+5, r16 8.75+5, r17 17.5+5) | Visual Weed Control (%) - 20 DAA LEFCH Obs (LEFCH [2]; g ae/ha Compound A Benzyl Ester+g ai/ha saflufenacil: r26 8.75+0, r27 17.5+0, r28 0+5, r29 0+10, r30 8.75+5, r31 17.5+5, r32 8.75+10, r33 17.5+10) | Visual Weed Control (%) - 20 DAA CYPRO Obs (CYPRO) |
| --- | --- | --- | --- | --- | --- | --- | --- | --- | --- | --- | --- | --- | --- | --- | --- | --- | --- | --- |
| C#CCN1C(=O)COc2cc(F)c(N3C(=O)C4=C(CCCC4)C3=O)cc21 [Fumioxazin] | 73% | 18% | 48% | 70% | 70% | 90% |  |  |  |  |  |  |  |  |  |  |  |  |
| CC(C)N(C)S(=O)(=O)NC(=O)c1cc(-n2c(=O)cc(C(F)(F)F)n(C)c2=O)c(F)cc1Cl [Saflufenacil, 2-chloro-5-[3,6-dihydro-3-methyl-2,6-dioxo-4-(trifluoromethyl)-1(2H)-pyrimidinyl]-4-fluoro-N-[[methyl(1-methylethyl)amino]sulfonyl]benzamide, reference compound] |  |  |  |  |  |  | 0% | 0% | 0% | 10% | 0% | 0% | 0% | 5% | 40% | 0% | 0% | 0% |
